{"source": "paper PMC10406827", "about": "“Targeted dosing for susceptible heteroresistant subpopulations may improve rational dosage regimen prediction for colistin in broiler chickens” (Scientific Reports, 2023)", "key": {"[1]": {"assay": "Colistin concentration in luminal intestinal (jejunum and ileum) content, UHPLC-MS/MS", "type": "in vivo, Ross 308 broiler chickens", "conditions": "Ross 308 broiler; for tissue level at time at 54 h: po, jejunum and ileum content, 4 birds per timepoint, read-out: Geometric mean colistin concentration in luminal intestinal content", "method": "Pharmacokinetic data from in vivo clinical and supra-clinical doses via drinking water and oral gavage were collected as follows. Birds were provided a 14-h photoperiod aligned with onset of dosing (0 h) at 07:00. Birds were housed together upon arrival and separated at 13-days into the following dosing groups 75,000 IU/kg oral gavage (n = 17), 150,000 IU/kg oral gavage (n = 17), 75,000 IU/kg/day drinking water (n = 38), 100,000 IU/kg/day drinking water (n = 38), and 150,000 IU/kg/day drinking water (n = 38), the remaining birds constituted an untreated control group (n = 27) housed in another room. Colistin was administered as a single oral gavage via manual syringe directly into the crop, with the volume calculated based on bird weight immediately prior to dosing. For colistin administration via drinking water, dose was calculated based on average bird weight and water consumption measured the preceding day. It was refreshed every 24 h over the 3-day dosing. The “real” dose received every 24 h was back calculated based on measured water consumption for each dosing period.\nFor administration via drinking water, 4 birds were sampled at each of the following timepoints pre-dose (0 h), during-dose (12, 36 and 54 h) and post-dose (72, 75, 76, 78, 84 and 96 h). Following oral gavage, 2 birds were sampled at each of the following timepoints 0 h (pre-dose), 1 h, 3 h, 6 h, 12 h, and 24 h (post-dose). Birds were sacrificed through cervical dislocation. The whole small intestine was excised from the duodenum to the large intestine, including the caeca, using individually wrapped and sterilised sets of dissection apparatus were used to avoid cross-contamination between birds. The jejunum and ileum were resected (between proximal ligature after duodenum, and distal ligature before the large intestine) and luminal intestinal content (LIC) was collected as an homogenous sample extracted from the small intestine via peristaltic massage in a proximal-to-distal direction as previously described, with the jejunum/ileum representing the principle compartment for potentially pathogenic E. coli (as compared to the large intestine). All samples were stored at − 80 °C prior to further analysis for no-more than 3 months. Following a previously validated method, colistin was extracted from the matrix using solid-phase extraction with a methanol:water (1:2; v/v) solution. Polymyxin B1 was used as an internal standard. Colistin A and colistin B, (main components of colistin), were separated, detected and measured using ultra-high-performance liquid chromatography coupled with tandem mass spectrometry (UHPLC-MS/MS). Total colistin was calculated as the ratio of the sum of peak areas of colistin A and B over the polymyxin B1 peak area."}, "[2]": {"assay": "1-compartment population intestinal PK model of colistin", "type": "in vivo, broiler chickens", "conditions": "for Amount of colistin base transit through the small intestine / Amount of colistin sulphate transit through the small intestine: Eq. (1)", "method": "Colistin (converted in mg/kg BW) was deposited in a dosing compartment (crop), either as a single bolus input representing an oral-gavage administration or as a daily zero-order input lasting 24 h representing a continuous dose via drinking water. The colistin content pooled jejunum and ileum content (expressed as mg colistin/kg intestinal content) was assumed to be well mixed and was fitted with a one-compartment model. The model was parametrised with 3 parameters: “clearance” that is here an intestinal flow rate (expressed in kg intestinal content/kg BW h^−1), “volume of distribution”, expressed in kg intestinal content/kg BW) and absorption rate constant for extravascular administration (Ka expressed in h^−1).\nBetween subject variability (BSV) was applied to the clearance (Cl) described using an exponential model, as in the following general equation: Pi=tvP∗exp(ηPi) where tvP is the typical value of the parameter within the population and the random parameter ηPi (eta) represents the deviation from the typical value for the ith individual. Etas are assumed normally distributed with a mean of 0 and a variance of ω^2.\nFor model evaluation, a significant decrease (> 6.635 corresponding to p < 0.01 for one degree of freedom) in the Bayesian information criterion (BIC) as well as observation of observed vs. population, individual predicted concentrations plots, and visual predictive checks (VPC) were utilized. All concentrations lower than the LOQ of the bioanalytical method (1.1 mg/kg) were considered as censored and managed with the M3 approach and using the Laplace engine by Phoenix™ v8.3.0.5005 (Certara, St. Louis, Missouri). Residual variability was described with a multiplicative error model, providing optimal fit compared to additive or additive/multiplicative models. Residual variability was low due to the single random effect on the clearance considering only a single-point for each bird (due to the nature of the destructive sampling) and the near normal distribution of the Etas. The final population model was evaluated using a Visual Predictive Check (VPC; n = 300) that compares observed with predicted quantiles (10th, 50th and 90th percentiles)."}, "[3]": {"assay": "Colistin activity loss after centrifugation of medium (colispot microbiological assay)", "type": "in vitro ADME", "conditions": "colispot method"}, "E. coli": {"tested_on": "E. coli", "conditions": "ref EUCAST; cited from earlier work", "method": "Colistin is used in chickens for the treatment and metaphylaxis (following confirmation of disease within the flock) of susceptible (ECOFF = 2 mg/L) gastro-intestinal non-invasive E. coli infections. The dose recommended for administration via drinking water is 75,000 IU of colistin (as sulphate) per kg body weight per day for 3–5 consecutive days in Europe. As colistin is not absorbed from the gastrointestinal tract, its effect is exerted locally within the intestinal lumen and the wall of the intestine. As such, there is an opportunity to develop a PK model to predict the gut concentration t ..."}, "E. coli 120h_B3_5; mcr-1": {"tested_on": "E. coli 120h_B3_5; mcr-1", "conditions": "cited from earlier work", "description": "(§1) Supplement 41598_2023_39727_MOESM1_ESM.docx, table 2: Supplementary Table 2: Typical value (tv) and median parameter estimates and 95% confidence intervals of the semi-mechanistic model. | column: Typical value (tv) estimate; Median (Bootstrap) estimate"}, "[4]": {"tested_on": "E. coli N100; mcr-negative", "conditions": "cited from earlier work", "description": "as §1"}, "[5]": {"tested_on": "mcr-negative and mcr-positive E. coli isolates", "conditions": "cited from earlier work", "description": "as §1"}, "[6]": {"conditions": "ref Bergen et al.[46], cited from earlier work", "method": "For the bacteriological response, the cumulative area under the curve of the total bacterial count over 24 h (AUCbact24h) was used. Data were then log10 transformed for regression. As LOQ was set at 100 CFU/mL, it was considered that re-growth would not occur if the total bacterial population decreased to this value. PK/PD indices are conventionally determined using protein unbound (free; f) concentration. Bergen et al.[46] indicated practical equivalence of total and unbound colistin in CAMHB (unbound fractions of 0.96 and 0.95 at 10 and 30 mg/L respectively). Furthermore, as colistin binding ..."}, "[7]": {"conditions": "75,000 IU/kg BW/day for 3-days; cited from earlier work", "description": "(§2) In this situation treatment is used to lower the number of resident E. coli in the gastrointestinal tract and control gut overgrowth, in a similar fashion to selective decontamination[37],[38]. As the outcome is not to achieve complete eradication (gut sterilisation), a lower effect than predicted by the PK/PD index critical value may be enough to reduce the bacterial burden within the gastrointestinal tract."}, "E. coli population": {"tested_on": "E. coli population", "conditions": "75,000 IU/kg BW/day for 3-days; cited from earlier work", "description": "as §2"}, "[8]": {"conditions": "targeted dose 100,000 IU/kg BW/day"}, "[9]": {"conditions": "targeted dose 150,000 IU/kg BW/day"}, "[10]": {"conditions": "typical value, 1-compartment intestinal PK model"}}, "note": "Where two headings read alike, the source gives them in different places. Marks after values point to notes of the source that are not given here. Where a SMILES comes first, the peptide text is derived from it. Bridges are numbered along the chain shown (N, C = ends). [ ]: non-standard residue; d: D form. The star is where a group is joined. X1 = CC[C@H](C)CCCCC(=O)*; Dab = NCC[C@H](N)C(=O)O"}
{"smiles": "CC[C@H](C)CCCCC(=O)N[C@@H](CCN)C(=O)N[C@H](C(=O)N[C@@H](CCN)C(=O)N[C@H]1CCNC(=O)[C@H]([C@@H](C)O)NC(=O)[C@H](CCN)NC(=O)[C@H](CCN)NC(=O)[C@H](CC(C)C)NC(=O)[C@@H](CC(C)C)NC(=O)[C@H](CCN)NC1=O)[C@@H](C)O", "note": "[colistin, colistin sulphate] (X1-[Dab]T[Dab][Dab][Dab][dL]L[Dab][Dab]T; lactam 4-C)", "values": [{"measurement": "tissue level at time at 1 h", "setting": "[1]; 75000 IU/kg, oral gavage 75,000 IU/kg, after 1 h, 2 birds per timepoint", "value": 21200, "unit": "ng/g"}, {"measurement": "tissue level at time at 3 h", "setting": "[1]; 150000 IU/kg, oral gavage 150,000 IU/kg, after 3 h, 2 birds per timepoint", "value": 45600, "unit": "ng/g"}, {"measurement": "tissue level at time at 54 h", "setting": "[1]; 75000 IU/kg/day, 75,000 IU/kg via drinking water", "value": 4890, "unit": "ng/g"}, {"measurement": "tissue level at time at 54 h", "setting": "[1]; 100000 IU/kg/day, 100,000 IU/kg via drinking water", "value": 6660, "unit": "ng/g"}, {"measurement": "tissue level at time at 54 h", "setting": "[1]; 150000 IU/kg/day, 150,000 IU/kg via drinking water", "value": 8600, "unit": "ng/g"}, {"measurement": "Overall MTT in digestive tract (mean transit time crop to jejunum)", "setting": "[2]; secondary parameter", "value": 4.5, "unit": "h"}, {"measurement": "ka HL (entry rate half-life)", "setting": "[2]; secondary parameter", "value": 3.14, "unit": "h"}, {"measurement": "Amount of colistin base transit through the small intestine", "setting": "[2]; targeted dose 75,000 IU/kg BW/day", "value": "70,534 IU/kg BW/day"}, {"measurement": "Amount of colistin base transit through the small intestine", "setting": "[2]; [8]", "value": "91,627 IU/kg BW/day"}, {"measurement": "Amount of colistin sulphate transit through the small intestine", "setting": "[2]; [8]", "value": 3.05, "unit": "mg/kg BW/day"}, {"measurement": "Amount of colistin base transit through the small intestine", "setting": "[2]; [9]", "value": "139,935 IU/kg BW/day"}, {"measurement": "Amount of colistin sulphate transit through the small intestine", "setting": "[2]; [9]", "value": 4.66, "unit": "mg/kg BW/day"}, {"measurement": "Cl (intestinal clearance), estimate (between subject variability %)", "setting": "[2]; [10]", "value": "29.1 (40.5%) g intestinal content/kg BW/h"}, {"measurement": "V (intestinal volume of distribution)", "setting": "[2]; [10]", "value": "5.14 g intestinal content/kg BW"}, {"measurement": "ka (entry rate constant from crop to jejunum)", "setting": "[2]; [10]", "value": 0.221, "unit": "h⁻¹"}, {"measurement": "Colistin activity loss following centrifugation", "setting": "[3]; from CAMHB, E. coli ATCC 25922 bacterial lawn (microbiological assay, not LCMS)", "value": 2, "unit": "%"}, {"measurement": "Colistin activity loss following centrifugation", "setting": "[3]; from IGM (intestinal growth medium), binding to particulate matter, E. coli ATCC 25922 bacterial lawn", "value": 27, "unit": "%"}, {"measurement": "ECOFF", "setting": "E. coli", "value": 2, "unit": "mg/L"}, {"measurement": "F2 (potentiation factor for Kdrug on S1), typical value (tv) estimate", "setting": "E. coli 120h_B3_5; mcr-1; for mcr-positive isolates, calculated from covariate parameter", "value": "3.76* scalar"}, {"measurement": "Emax (S1), typical value (tv) estimate", "setting": "E. coli 120h_B3_5; mcr-1; mcr-positive isolates, Emax (S2) x F2", "value": "10.13** h^-1"}, {"measurement": "EC50_S1, typical value (tv) estimate", "setting": "E. coli 120h_B3_5; mcr-1; sub-population S1", "value": 2.760, "unit": "µg/mL"}, {"measurement": "EC50_S2, typical value (tv) estimate", "setting": "E. coli 120h_B3_5; mcr-1; sub-population S2", "value": 2.174, "unit": "µg/mL"}, {"measurement": "F2 (potentiation factor for Kdrug on S1), typical value (tv) estimate", "setting": "[4]; for mcr-negative isolates", "value": 12.66, "unit": "scalar"}, {"measurement": "Emax (S1), typical value (tv) estimate", "setting": "[4]; negative mcr isolates, Emax (S2) x F2", "value": "34.12** h^-1"}, {"measurement": "EC50_S1, typical value (tv) estimate", "setting": "[4]; sub-population S1, reproduced PD parameters", "value": 0.083, "unit": "µg/mL"}, {"measurement": "EC50_S2, typical value (tv) estimate", "setting": "[4]; sub-population S2", "value": 0.115, "unit": "µg/mL"}, {"measurement": "Emax (S2), typical value (tv) estimate", "setting": "[5]; both mcr-negative and mcr-positive isolates, maximal increase in kill effect", "value": 2.69, "unit": "h⁻¹"}, {"measurement": "gamma_S1 (Hill coefficient), typical value (tv) estimate", "setting": "[5]; sub-population S1", "value": 4.09, "unit": "scalar"}, {"measurement": "gamma_S2 (Hill coefficient), median (bootstrap) estimate", "setting": "[5]; sub-population S2", "value": 3.80, "unit": "scalar"}, {"measurement": "gamma_S2 (Hill coefficient), typical value (tv) estimate", "setting": "[5]; sub-population S2", "value": 3.22, "unit": "scalar"}, {"measurement": "Unbound fraction of colistin", "setting": "[6]; in CAMHB at 10 mg/L", "value": 0.96}, {"measurement": "Unbound fraction of colistin", "setting": "[6]; in CAMHB at 30 mg/L", "value": 0.95}, {"measurement": "Maximum intestinal concentrations", "setting": "[7]", "value": "greater than 5 mg/kg"}, {"measurement": "Reduction in the E. coli population", "setting": "E. coli population", "value": "~1000", "unit": "fold"}]}
